Reference: paper PMC2825747 (Journal of medicinal chemistry, 2010)

What was measured:
[1] = Dose-finding embryo lethality in CAM model; format: in vivo; conditions: chicken embryos, 3 days after injection
NCI 60 tumor cell lines = assay: NCI preclinical 60 tumor cell line panel growth inhibition; format: cell-based; conditions: Homo sapiens, read-out: GI50 against the growth of the NCI 60 tumor cell lines
[2] = system: MDA MB 435 metastatic dermal breast cancer cells; assay: Cell cycle analysis in MDA-MB-435 cells; format: cell-based, human; conditions: 20 μM, 24 h exposure
MDA-MB-435 breast cells = assay: Cell signaling analysis; format: cell-based, human; conditions: MDA-MB-435 cells, 20 μM, 1 or 4 h
[3] = system: COLO-205 metastatic colon cancer cells; assay: COLO-205 human metastatic colon mouse xenograft; format: in vivo, athymic mice; conditions: 1 at both 25 and 35 mg/kg; DMBI 15 mg/kg three times weekly
[4] = Whole animal toxicity assay; conditions: doses up from 75 mg/kg; no MTD was determined
[5] = system: MDA-MB-435, A431, Capan-1, HUVEC, HMEC-1, Huperi-3, human aortic SMCs; assay: Cell viability; conditions: 24 h drug then 24 h serum-containing media; Fig. 10
PDGFR-β = PDGFR-β (Homo sapiens, UniProt P09619); assay: PDGFR-β kinase inhibition, phosphotyrosine cytoblot in SF539 cells; format: cell-based; conditions: versus DMBI
Flt-3 = biological target: T1, Flt-3 (Homo sapiens, UniProt P36888); assay: Flt-3 kinase whole cell assay, cytoblot in MV 3:11 cells; format: cell-based; conditions: versus 16
T1 sequence (P36888 27-993): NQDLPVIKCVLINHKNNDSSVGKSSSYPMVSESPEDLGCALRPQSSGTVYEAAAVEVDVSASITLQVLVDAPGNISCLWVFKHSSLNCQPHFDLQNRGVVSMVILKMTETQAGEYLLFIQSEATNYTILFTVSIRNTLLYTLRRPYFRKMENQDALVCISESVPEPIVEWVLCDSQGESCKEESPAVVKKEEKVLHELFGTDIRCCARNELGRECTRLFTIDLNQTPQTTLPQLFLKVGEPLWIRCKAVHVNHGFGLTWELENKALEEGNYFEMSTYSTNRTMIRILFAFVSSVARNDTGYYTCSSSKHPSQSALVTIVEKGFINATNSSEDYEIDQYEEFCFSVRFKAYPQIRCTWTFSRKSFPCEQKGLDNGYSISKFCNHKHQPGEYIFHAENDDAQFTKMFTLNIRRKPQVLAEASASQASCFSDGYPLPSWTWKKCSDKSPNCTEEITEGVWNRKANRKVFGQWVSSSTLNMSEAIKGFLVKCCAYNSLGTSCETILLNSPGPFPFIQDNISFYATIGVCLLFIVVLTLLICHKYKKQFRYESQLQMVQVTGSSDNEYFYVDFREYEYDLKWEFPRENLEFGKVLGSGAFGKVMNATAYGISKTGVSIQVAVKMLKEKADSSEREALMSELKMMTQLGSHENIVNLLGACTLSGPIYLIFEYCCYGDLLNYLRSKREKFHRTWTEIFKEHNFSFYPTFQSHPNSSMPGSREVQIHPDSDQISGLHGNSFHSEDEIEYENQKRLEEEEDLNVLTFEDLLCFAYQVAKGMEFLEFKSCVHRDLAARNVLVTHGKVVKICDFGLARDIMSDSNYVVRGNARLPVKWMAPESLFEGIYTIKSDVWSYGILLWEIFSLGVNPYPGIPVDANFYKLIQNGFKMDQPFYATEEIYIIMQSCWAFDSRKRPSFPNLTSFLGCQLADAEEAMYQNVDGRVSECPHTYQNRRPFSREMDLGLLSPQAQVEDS

[6] = biological target: human thymidylate synthase (hTS) (Homo sapiens, UniProt P04818); assay: Thymidylate synthase; format: biochemical; conditions: versus pemetrexed
[7] = biological target: E. coli thymidylate synthase (Escherichia coli, UniProt P0A884); assay: Thymidylate synthase; format: biochemical
[8] = biological target: T2, Toxoplasma gondii thymidylate synthase (Toxoplasma gondii, UniProt Q07422); assay: biochemical
T2 sequence (Q07422 1-610): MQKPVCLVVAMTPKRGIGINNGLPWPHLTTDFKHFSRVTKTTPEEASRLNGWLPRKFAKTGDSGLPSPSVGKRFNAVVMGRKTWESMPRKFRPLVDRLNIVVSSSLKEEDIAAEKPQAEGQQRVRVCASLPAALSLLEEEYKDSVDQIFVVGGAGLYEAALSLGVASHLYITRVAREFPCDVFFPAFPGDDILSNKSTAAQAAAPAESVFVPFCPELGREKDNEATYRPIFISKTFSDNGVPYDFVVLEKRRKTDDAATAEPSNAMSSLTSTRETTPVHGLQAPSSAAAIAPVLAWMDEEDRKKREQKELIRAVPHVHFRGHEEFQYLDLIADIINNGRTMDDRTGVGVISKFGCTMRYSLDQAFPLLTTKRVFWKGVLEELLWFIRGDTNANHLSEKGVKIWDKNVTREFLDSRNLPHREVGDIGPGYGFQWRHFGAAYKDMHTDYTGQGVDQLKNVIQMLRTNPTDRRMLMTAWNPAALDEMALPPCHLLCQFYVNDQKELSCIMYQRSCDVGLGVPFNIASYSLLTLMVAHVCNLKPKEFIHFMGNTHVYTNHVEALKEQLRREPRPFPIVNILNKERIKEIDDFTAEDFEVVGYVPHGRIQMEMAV

[9] = biological target: T3, Toxoplasma gondii dihydrofolate reductase (Toxoplasma gondii, UniProt Q07422); assay: biochemical
T3 sequence (Q07422 1-610): T2 sequence (Q07422 1-610)

Sequence of PDGFR-β (P09619 33-1106): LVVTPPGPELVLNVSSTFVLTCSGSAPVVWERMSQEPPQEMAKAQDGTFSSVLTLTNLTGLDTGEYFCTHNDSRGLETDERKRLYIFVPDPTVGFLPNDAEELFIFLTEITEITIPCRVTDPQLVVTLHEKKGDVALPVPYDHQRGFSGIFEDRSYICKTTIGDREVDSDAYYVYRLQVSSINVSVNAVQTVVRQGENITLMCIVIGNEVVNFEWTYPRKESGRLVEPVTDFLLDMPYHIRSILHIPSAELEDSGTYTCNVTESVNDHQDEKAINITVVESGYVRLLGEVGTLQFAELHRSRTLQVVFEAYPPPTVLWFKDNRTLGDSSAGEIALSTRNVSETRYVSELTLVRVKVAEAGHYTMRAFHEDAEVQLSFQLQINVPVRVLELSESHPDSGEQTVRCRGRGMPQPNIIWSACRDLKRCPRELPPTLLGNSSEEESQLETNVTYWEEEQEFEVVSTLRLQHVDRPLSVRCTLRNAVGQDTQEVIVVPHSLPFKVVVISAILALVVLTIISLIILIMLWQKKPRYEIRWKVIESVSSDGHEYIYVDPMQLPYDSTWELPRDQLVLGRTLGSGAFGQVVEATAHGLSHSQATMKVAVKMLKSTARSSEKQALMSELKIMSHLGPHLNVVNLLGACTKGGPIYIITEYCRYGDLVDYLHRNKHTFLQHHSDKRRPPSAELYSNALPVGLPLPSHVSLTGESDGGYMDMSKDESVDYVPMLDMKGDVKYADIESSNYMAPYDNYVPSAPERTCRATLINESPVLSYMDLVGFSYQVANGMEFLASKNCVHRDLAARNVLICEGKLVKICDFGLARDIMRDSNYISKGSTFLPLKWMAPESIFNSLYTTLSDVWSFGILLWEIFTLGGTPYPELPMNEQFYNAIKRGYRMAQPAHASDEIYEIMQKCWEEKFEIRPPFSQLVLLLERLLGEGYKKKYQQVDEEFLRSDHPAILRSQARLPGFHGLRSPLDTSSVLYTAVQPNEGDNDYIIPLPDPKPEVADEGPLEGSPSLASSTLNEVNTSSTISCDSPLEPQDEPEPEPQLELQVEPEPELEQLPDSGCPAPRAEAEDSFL
Sequence of E. coli thymidylate synthase (P0A884 whole entry): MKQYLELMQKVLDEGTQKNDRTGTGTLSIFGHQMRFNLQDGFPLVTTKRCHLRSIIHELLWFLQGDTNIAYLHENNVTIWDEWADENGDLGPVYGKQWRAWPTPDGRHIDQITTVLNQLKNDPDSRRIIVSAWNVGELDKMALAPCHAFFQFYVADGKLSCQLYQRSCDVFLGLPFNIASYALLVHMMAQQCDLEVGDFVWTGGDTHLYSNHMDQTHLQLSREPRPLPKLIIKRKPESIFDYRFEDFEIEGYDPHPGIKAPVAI
Sequence of human thymidylate synthase (hTS) (P04818 whole entry): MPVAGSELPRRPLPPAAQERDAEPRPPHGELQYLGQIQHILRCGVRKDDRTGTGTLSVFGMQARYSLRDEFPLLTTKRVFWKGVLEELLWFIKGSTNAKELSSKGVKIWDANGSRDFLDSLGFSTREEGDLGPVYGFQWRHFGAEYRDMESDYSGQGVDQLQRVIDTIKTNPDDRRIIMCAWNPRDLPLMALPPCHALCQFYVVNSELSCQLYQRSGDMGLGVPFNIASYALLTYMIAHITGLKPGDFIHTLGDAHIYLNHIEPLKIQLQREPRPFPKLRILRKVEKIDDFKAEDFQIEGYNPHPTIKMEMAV

| SMILES | highest dose resulting in no lethality or overt toxicity in embryos [1] [mg/kg] | GI50 (NCI 60 tumor cell lines) [µM] | cell cycle effect [2] | levels of activated phospho-Akt (MDA-MB-435 breast cells) | levels of activated phospho-p42/44 MAPkinase (ERK 1/2) (MDA-MB-435 breast cells) | levels of cleaved caspase 3 (MDA-MB-435 breast cells) | numbers of COLO-205 metastases to the liver [3] | tolerability in mice [4] | cell viability (cell kill) sensitivity by cell type [5] | PDGFR-β: fold less potent than the standard DMBI (PDGFR-β) | Flt-3: fold less active compared with standard 16 (Flt-3) | hTS: fold more active than PMX as its monoglutamate [6] [fold] | IC50 [7] [µM] | IC50 [8] [µM] | IC50 [9] [µM] |
| --- | --- | --- | --- | --- | --- | --- | --- | --- | --- | --- | --- | --- | --- | --- | --- |
| Nc1ccn([C@@H]2O[C@H](CO)[C@@H](O)C2(F)F)c(=O)n1 [gemcitabine, reference compound] | 10 | – | – | – | – | – | – | – | – | – | – | – | – | – | – |
| Nc1nc(N)c2c(n1)[nH]c1cccc(Sc3ccccc3)c12 [Compound 1, 5-(phenylthio)-9H-pyrimido[4,5-b]indole-2,4-diamine] | 25 | 1 to 10 | buildup in G2/M | neither agent resulted in increased levels of activated phospho-Akt | reduced levels of activated ERK 1/2 | neither 20 μM 1 or 20 μM 2 resulted in increased levels of cleaved caspase 3 | significantly reduced numbers of COLO-205 metastases to the liver | well tolerated without any visual ADRs or loss in weight | Human retinal pericytes (Huperi-3),[64] (not human aortic SMCs), were very sensitive | – | – | – | – | – | – |
| Cc1ccc(Sc2cccc3[nH]c4nc(N)nc(N)c4c23)cc1 [Compound 2, 5-[(4-methylphenyl)thio]-9H-pyrimido[4,5-b]indole-2,4-diamine] | – | – | increase in S phase | neither agent resulted in increased levels of activated phospho-Akt | reduced levels of activated ERK 1/2 | neither 20 μM 1 or 20 μM 2 resulted in increased levels of cleaved caspase 3 | – | – | tumor cells being the most sensitive, endothelial cells falling someplace in the middle, and SMC variants being the least sensitive | about 11 fold | about 13 fold | 76 | > 26 | > 26 | > 31 |
